{"source": "paper PMC5715147", "about": "“Albumin/vaccine nanocomplexes that assemble in vivo for combination cancer immunotherapy” (Nature Communications, 2017)", "key": {"[1]": {"details": "rhesus monkey, in vivo; cited from earlier work", "from_the_text": "Here we took a clinically oriented perspective to develop AlbiVax by first repurposing a clinically practiced EB that binds to albumin at binding site I[33], and then conjugating molecular vaccines with an EB derivative. The resulting albumin/AlbiVax nanocomplexes that assemble in vivo were efficiently delivered to LNs and induced potent and durable anti-cancer immunity. EB and derivatives have been developed for preclinical and clinical LN identification[34]–[39]. They have excellent clinical safety profiles[36],[39], and rhesus monkeys survived 25 mg kg^−1 systemically injected EB[40], a dos ... || Safe and robust T cell vaccines would hold great promise for combination cancer immunotherapy. Locally administered vaccines must provide efficient delivery to LNs for effective antitumor immunomodulation. Nanovaccines are a promising approach for efficient vaccine delivery to LNs, and quite a few have been developed preclinically, yet the clinical translation of these nanoformulas has been hindered by limitations in their safety, suitability for reproducible large-scale manufacturing, and in vivo integrity. We chose albumin, one of the most successful carriers of nanomedicines in the clinic, ..."}, "[2]": {"test": "PET quantification of vaccine delivery to draining LNs after s.c. injection", "type": "in vivo, FVB mice", "details": "64Cu-labeled, s.c. at tail base", "protocol": "AlbiVax was radiolabeled with ^64Cu for PET. To label ^64Cu via chelation, a NOTA-functionalized MEB (NMEB) was synthesized and conjugated with vaccines. […] The reaction was shaken for 0.5 h at 37 °C. Thereafter, the radiochemical purity was determined using iTLC plates (Fisher Scientific), developed in 0.1 M citric acid (pH 5).\nFemale FVB mice (6–8 weeks) were used in all PET imaging studies in naive mice. C57BL/6 mice (6–8 weeks) were used in PET imaging of tumor-bearing mice. Mice were anesthetized using isoflurane/O^2 (2% v v^−1) before injection. Anesthetized mice were injected s.c. at the base of tail with ^64Cu-labeled vaccines (4.44−5.55 MBq/120–150 μCi each mouse) in PBS (100 μL). At indicated time points post injection, mice were scanned on an Inveon DPET scanner (Siemens Medical Solutions, Malvern, PA). PET images were reconstructed without correction for attenuation or scattering using a three-dimensional ordered subsets expectation maximization algorithm. ASI Pro VM^TM software was used for image analysis. Regions of interest (ROI) were drawn on LNs to calculate the %ID/g."}, "[3]": {"test": "Biodistribution in resected organs by γ counting", "set-up": "species or system FVB mice", "details": "mouse, in vivo, sc", "protocol": "The above mice were killed at specified time points. Organs and blood were collected and wet weighed. The collected organs and blood, together with a series of standard solutions, were measured for ^64Cu radioactivity on a gamma counter (Wallac Wizard 1480, PerkinElmer). The radioactivity of organs and blood was converted to calculate the percentages of the injected dose (%ID) in organs of interest and the percentages of the injected dose per gram of tissue (%ID/g)."}, "[4]": {"details": "human, in vivo; cited from earlier work"}}}
{"compound": "Cc1cc(-c2ccc(/N=N/c3ccc4c(S(=O)(=O)O)cc(S(=O)(=O)O)c(N)c4c3O)c(C)c2)ccc1/N=N/c1ccc2c(S(=O)(=O)O)cc(S(=O)(=O)O)c(N)c2c1O", "note": "[EB, Evans blue]", "values": [{"measurement": "systemically injected dose survived", "setting": "[1]", "value": 25, "unit": "mg/kg"}]}
{"compound": "CC(C)C[C@H](NC(=O)[C@H](Cc1c[nH]c2ccccc12)NC(=O)[C@@H](NC(=O)[C@H](Cc1ccccc1)NC(=O)[C@H](Cc1ccccc1)NC(=O)[C@H](CC(=O)O)NC(=O)[C@H](Cc1ccc(O)cc1)NC(=O)[C@@H](NC(=O)[C@H](CO)NC(=O)[C@@H](N)CS)C(C)C)C(C)C)C(=O)O", "note": "[Trp2]", "values": [{"measurement": "LN delivery (in words)", "setting": "[2]; PET", "value": "no detectable"}]}
{"compound": "CpG: CpG1826 (TCCATGACGTTCCTGACGTT), phosphorothioate oligodeoxynucleotide, TLR9 agonist", "values": [{"measurement": "injection dose (%ID) delivered to inguinal (IN) and axillary (AX) LNs", "setting": "[2]; 4.4–5.5 Mbq, decay-corrected PET over 3 days, n = 4–8", "value": "< 0.3", "unit": "%ID"}, {"measurement": "%ID/g in IN LNs on day 5", "setting": "[3]", "value": "2.5 ± 1.3", "unit": "%ID/g"}, {"measurement": "percent injection dose per gram of tissue in IN LNs on day 3", "setting": "[3]", "value": "8.3 ± 4.7", "unit": "%ID/g"}]}
{"compound": "albumin", "values": [{"measurement": "half-life", "setting": "[4]", "value": "over 20 days"}]}
